Experimental data published in patent publication EP0222702A2, “Basic carbonyl derivatives” (CIBA-GEIGY AG, priority 1985, dated 1987).

Key:
[1] = biological target: T1, Dihydropyridin-Rezeptoren (Cavia porcellus, UniProt O35505); experiment: Displacement of 3H-nitrendipine binding from guinea pig heart membranes; set-up: species or system Meerschweichen; settings: membranes of guinea pig hearts, in vitro; read-out: Verdrängung der Bindung von 3H-Nitrendipin, Konzentration (IC50)
T1 construct: from tissue; host or cells: guinea pig heart membranes
T1 sequence (O35505 whole entry): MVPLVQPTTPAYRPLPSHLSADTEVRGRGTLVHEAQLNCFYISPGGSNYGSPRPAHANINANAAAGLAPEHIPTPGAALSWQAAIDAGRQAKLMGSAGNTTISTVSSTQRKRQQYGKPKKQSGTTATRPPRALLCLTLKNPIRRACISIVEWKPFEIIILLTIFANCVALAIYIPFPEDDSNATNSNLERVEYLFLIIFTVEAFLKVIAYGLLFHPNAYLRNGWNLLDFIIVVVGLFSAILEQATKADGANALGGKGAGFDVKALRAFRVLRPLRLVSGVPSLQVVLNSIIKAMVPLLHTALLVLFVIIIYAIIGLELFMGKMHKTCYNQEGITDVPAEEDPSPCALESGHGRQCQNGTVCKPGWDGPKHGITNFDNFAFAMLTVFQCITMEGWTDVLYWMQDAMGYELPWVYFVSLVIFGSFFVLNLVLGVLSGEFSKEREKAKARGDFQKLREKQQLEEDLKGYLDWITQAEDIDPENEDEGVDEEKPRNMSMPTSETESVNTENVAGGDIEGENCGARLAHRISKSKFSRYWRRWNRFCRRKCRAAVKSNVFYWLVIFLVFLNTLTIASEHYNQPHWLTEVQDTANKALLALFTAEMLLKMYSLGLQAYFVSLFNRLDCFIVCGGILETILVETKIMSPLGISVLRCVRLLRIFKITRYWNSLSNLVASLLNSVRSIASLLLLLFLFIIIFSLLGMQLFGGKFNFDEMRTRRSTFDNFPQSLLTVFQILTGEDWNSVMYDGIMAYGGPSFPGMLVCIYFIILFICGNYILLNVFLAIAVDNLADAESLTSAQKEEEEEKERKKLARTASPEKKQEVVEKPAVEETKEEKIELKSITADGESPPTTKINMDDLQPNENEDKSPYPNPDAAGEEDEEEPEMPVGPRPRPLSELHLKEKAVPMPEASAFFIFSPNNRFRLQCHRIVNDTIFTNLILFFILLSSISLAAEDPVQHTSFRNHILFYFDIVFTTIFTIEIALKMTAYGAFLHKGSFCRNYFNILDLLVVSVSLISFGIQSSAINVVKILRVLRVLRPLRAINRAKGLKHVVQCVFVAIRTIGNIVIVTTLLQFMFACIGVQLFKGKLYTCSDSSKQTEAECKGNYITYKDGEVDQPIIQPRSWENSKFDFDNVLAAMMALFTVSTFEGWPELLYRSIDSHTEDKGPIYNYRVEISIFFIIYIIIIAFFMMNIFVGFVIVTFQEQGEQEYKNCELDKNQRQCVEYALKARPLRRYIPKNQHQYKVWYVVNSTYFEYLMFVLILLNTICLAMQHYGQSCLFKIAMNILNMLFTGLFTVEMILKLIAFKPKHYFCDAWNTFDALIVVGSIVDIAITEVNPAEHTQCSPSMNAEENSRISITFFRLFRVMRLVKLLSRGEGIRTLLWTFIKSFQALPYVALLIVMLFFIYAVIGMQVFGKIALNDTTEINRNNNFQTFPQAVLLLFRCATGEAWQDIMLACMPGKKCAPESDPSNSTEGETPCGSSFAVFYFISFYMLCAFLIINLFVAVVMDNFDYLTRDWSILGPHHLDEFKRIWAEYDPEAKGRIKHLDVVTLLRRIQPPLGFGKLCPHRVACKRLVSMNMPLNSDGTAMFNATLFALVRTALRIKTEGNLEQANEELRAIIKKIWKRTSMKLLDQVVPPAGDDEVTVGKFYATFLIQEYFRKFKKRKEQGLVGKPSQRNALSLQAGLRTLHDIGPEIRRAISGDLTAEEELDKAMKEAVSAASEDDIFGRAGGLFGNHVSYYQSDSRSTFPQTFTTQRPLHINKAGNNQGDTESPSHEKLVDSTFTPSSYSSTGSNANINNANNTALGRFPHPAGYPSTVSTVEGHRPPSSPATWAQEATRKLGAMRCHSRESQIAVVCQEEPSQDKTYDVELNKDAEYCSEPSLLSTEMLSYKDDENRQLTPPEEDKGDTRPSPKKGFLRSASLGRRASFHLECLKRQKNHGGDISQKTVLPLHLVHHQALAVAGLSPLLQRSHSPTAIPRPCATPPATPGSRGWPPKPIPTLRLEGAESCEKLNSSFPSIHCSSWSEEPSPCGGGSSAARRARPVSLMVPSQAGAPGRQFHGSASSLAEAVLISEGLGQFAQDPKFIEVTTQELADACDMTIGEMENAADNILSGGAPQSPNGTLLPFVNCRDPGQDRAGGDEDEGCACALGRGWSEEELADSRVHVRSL
Text: (§1) Ferner lässt sich die Bindung der neuen Verbindungen oder deren Salze an Dihydropyridin-Rezeptoren mittels Verdrängung der Bindung von ^3H-Nitrendipin an Membranen von Meerschweichenherzen in in-vitro-Versuchen [Erne, P. et al,: Biochem. Biophys. Res. Commm., 118, 842-847 (1984)] z.B. unter Verwendung von 2,6-Dimethyl-4-(3-nitrophenyl)-1,4-dihydropyridin-3-carbonsäuremethylester-5-carbonsäure-[2-[4-(p-fluorobenzoyl)-piperidin-1-yl]-1-phenyl] -äthyl ester (Diastereomerengemisch) bei einer Konzentration (IC50) von etwa 0,2 nMol/Liter nachweisen. Ebenso kann die Bindung der erfindungsgemässen Verbindungen an ai-Rezeptoren durch Verdrängung von ^3H-Prazosin aus seinen Bindungsstellen an der Ratten-Cerebralcortex-Membran gemäss der Methodik von P. Greenengass et al., Eur. J. Pharmacol. 55, 323, (1979), bei etwa 300 nMol/Liter in vitro signifikant nachgewiesen werden. Ausserdem lässt sich die Bindung der neuen Verbindungen oder deren Salze an Serotonin-(5HT2)-Rezeptoren mittels Verdrängung der Bindung von ^3H-Ketanserin an Membranen des Rattenhirns [Leysen, J.E. et al.: Molecul. Pharmacol. 21, 301-304, (1982)] z.B. unter Verwendung von 2,6-Dimethyl-4-(3-nitrophenyl)-1,4-dihydropyridin-3-carbonsäuremethylester-5-carbonsäure-[2-[4-(p-fluorbenzoyl)-piperidin-1-yl]-1-phenyl]-äthylester (Diastereomerengemisch) bei einer Konzentration (ICso) von etwa 6,0 nMol/Liter zeigen.

[2] = tested on: Noradrenalin-induzierten Vasokonstriktion, isoliert perfundierten Mesenterialgefässen der Ratte; experiment: Inhibition of noradrenaline-induced vasoconstriction in isolated perfused rat mesenteric vessels; settings: in vitro, read-out: Hemmung der Noradrenalin-induzierten Vasokonstriktion (ICso)
Text: Die Verbindungen der Formel 1 und deren Salze besitzen wertvolle pharmakologische Eigenschaften, vor allem im cardiovasculären Bereich. Sie wirken als Calcium-Antagonisten und besitzen a-Rezeptoren blockierende sowie Serotonin-antagonistische Eigenschaften, wie sich z.B. in in-vitro-Versuchen an isoliert perfundierten Mesenterialgefässen der Ratte [McGregor, D.: J.Physiol. 177, 21-30, (1965)] als Hemmung der Kalium-,Noradrenalin-und Serotonin-induzierten Vasokonstriktion, beispielsweise unter Verwendung von 2,6-Dimethyl-4-(3-nitrophenyl)-1,4-dihydropyridin-3-carbonsäurmethylester-5-carbonsäure-[2-[4-(p-fluorben- zoyl)-piperidin-1-yl] -1-phenyl]-äthylester (Diastereomerengemisch) bei einer Konzentration von ca. 5 nMol/Liter (IC50) für die Hemmung der Kalium-induzierten Vasokonstriktion, von ca. 4 nMol/Liter (ICso) für die Hemmung der Noradrenalin-induzierten Vasokonstriktion und von ca. 80 nMol/Liter für die Hemmung der Serotonin-induzierten Vasokonstriktion zeigen lässt.

[3] = biological target: T2, Serotonin-(5HT2)-Rezeptoren (Rattus norvegicus, UniProt P14842); experiment: Displacement of 3H-ketanserin binding from rat brain membranes; set-up: species or system Ratten; settings: read-out: Verdrängung der Bindung von 3H-Ketanserin, Konzentration (ICso)
T2 construct: from tissue; host or cells: rat brain membranes
T2 sequence (P14842 whole entry): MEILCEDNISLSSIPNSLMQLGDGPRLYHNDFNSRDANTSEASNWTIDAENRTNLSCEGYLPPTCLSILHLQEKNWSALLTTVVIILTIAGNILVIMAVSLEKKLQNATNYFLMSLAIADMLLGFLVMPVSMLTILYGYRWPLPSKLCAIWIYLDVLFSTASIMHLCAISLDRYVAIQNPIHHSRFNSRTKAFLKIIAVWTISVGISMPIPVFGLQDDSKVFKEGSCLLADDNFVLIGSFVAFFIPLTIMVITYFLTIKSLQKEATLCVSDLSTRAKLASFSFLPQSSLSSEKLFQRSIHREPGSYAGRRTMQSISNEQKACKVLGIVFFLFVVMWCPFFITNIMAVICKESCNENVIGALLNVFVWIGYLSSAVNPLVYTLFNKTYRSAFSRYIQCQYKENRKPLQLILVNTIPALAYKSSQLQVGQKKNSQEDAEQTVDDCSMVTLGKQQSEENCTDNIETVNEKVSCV
Text: as §1

[4] = tested on: renal hypertensiven Ratte; experiment: Blood pressure lowering in the renal hypertensive rat; format: in vivo; settings: 2 hours after p.o. application of ca. 2,0 mg/kg
Method: Die neuen Verbindungen oder deren Salze bewirken ferner eine Hemmung der durch Angiotensin 11, durch elektrische Stimulation oder durch Phenylephrin oder Noradrenalin induzierten pressorischen Effekte an der "pithed rat" [J.S. Gillespie: Br.J.Pharmacoi. 30, 78 (1967)] bei einer Dosis von etwa 2 mg/kg, und eine Hemmung der durch Serotonin induzierten pressorischen Effekte bei einer Dosis von etwa 6 mg/kg. Die neuen Verbindungen oder deren Salze wirken ausserdem antihypertensiv, was sich z.B. durch Senkung des Blutdrucks an der renal hypertensiven Ratte [Goldblatt et al.: J.exp.med. 59, 347 (1934)] zeigen lässt. So kann z.B. 2 Stunden nach p.o-Applikation von ca. 2,0 mg/kg 2,6-Dimethyl-4-(3-nitrophenyl)-1,4-dihydropyridin-3-carbonsäuremethylester-5-carbonsäure-[2-[4-(p-fluorbenzoyl)-piperidin-1-yl]-1-phenyl]-äthylester (Diastereomerengemisch) an der renal hypertensiven Ratte eine Blutdrucksenkung von ca. -70 mm Hg beobachtet werden.

Q: `COC(=O)C1=C(C)NC(C)=C(C(=O)OC(CN2CCC(C(=O)c3ccc(F)cc3)CC2)c2ccccc2)C1c1cccc([N+](=O)[O-])c1` (stereo not shown) [Beispiel 1, 2,6-Dimethyl-4-(3-nitrophenyl)-1,4-dihydropyridin-3-carbonsäuremethylester-5-carbonsäure-[2-[4-(p-fluorbenzoyl)-piperidin-1-yl]-1-phenyl]-äthylester] was tested. Which IC50 [1] did it give?
A: ~0.2 nM

Q: What about the IC50 [2] of the same compound?
A: ~4 nM

Q: And the IC50 [3]?
A: ~6 nM

Q: And the Blutdrucksenkung [4]?
A: ca. -70 mm Hg
